# Source: US6037351A, “Method of inhibiting hepatitis B virus” (priority 1996, dated 2000)
# “Also recorded” adds a separate entry of the source.
# Assays:
# [1] = tested on: mouse hepatitis virus (MHV); conditions: appearance of E2 on the cell surface is delayed; cited from earlier work
# hepatitis B virus (HBV) [2] = experiment: HBV secretion under tunicamycin; format: cell-based; conditions: found by the present inventors
# [3] = tested on: N-linked glycosylation of proteins; conditions: cited from earlier work
# hepatitis B virus (HBV) [4] = conditions: previously reported; cited from earlier work
# cells = conditions: cited from earlier work
# [5] = treatment of chronic hepatitis B; clinical tests suspended; cited from earlier work
# HBV infection = conditions: patients; cited from earlier work
# α-glucosidase I = conditions: N-linked oligosaccharide processing enzyme; cited from earlier work
# α-glucosidase II = conditions: N-linked oligosaccharide processing enzyme; cited from earlier work
compound,measurement,setting,value
CN1C[C@H](O)[C@@H](O)[C@H](O)[C@H]1CO [N-methyl deoxynojirimycin],formation of mouse hepatitis virus (in words),[1],inhibit the formation of mouse hepatitis virus (MHV)
tunicamycin,secretion of subviral particles (in words),hepatitis B virus (HBV) [2]; subviral particles,not subviral particles is inhibited
same,secretion of HBV virions (in words),hepatitis B virus (HBV) [2]; virions,inhibited
same,N-linked glycosylation of proteins (in words),[3],complete inhibition
same,HBV secretion from HBV infected or HBV-producing cells (in words),hepatitis B virus (HBV) [4],no significant reduction of HBV secretion; also recorded: normal HBV particle secretion
same,toxicity to cells (in words),cells,very toxic to cells
O=c1[nH]c(=O)n([C@@H]2O[C@H](CO)[C@@H](O)[C@@H]2F)cc1I [fialuridine],drug-related liver failure in patients,[5],six of 20 patients
Alpha interferon,treatment of HBV infection (in words),HBV infection,promising results in some patients
"OC[C@H]1NC[C@H](O)[C@@H](O)[C@@H]1O [DNJ, 1,5-Dideoxy-1,5-imino-D-glucitol, reference compound]",inhibition of α-glucosidase I (in words),α-glucosidase I,known inhibitors
same,inhibition of α-glucosidase II (in words),α-glucosidase II,known inhibitors
